Data from PMC8703412 (Pharmaceuticals, 2021).
≈ marks a conversion by molar mass, not a printed value. Like-named read-outs stand apart in the source and are kept apart here.

Experiments:
[1] = system: Mycobacterium tuberculosis strain 331/88 (i.e., H37Rv); test: MIC micromethod in Šula's medium, drug-susceptible Mtb.; format: cell-based
[2] = system: Mycobacterium avium 330/88; test: MIC micromethod in Šula's medium, M. avium; format: cell-based
[3] = system: Mycobacterium kansasii 6509/96 (clinical isolate); test: MIC micromethod in Šula's medium, M. kansasii; format: cell-based
HepG2 cells = test: Cytotoxicity, CellTiter 96 (MTS) assay; settings: read-out: Cytotoxicity for HepG2 cells, IC50; 24 h incubation, 1–1000 µM
[4] = Cytotoxicity, CellTiter 96 (MTS) assay; settings: human, Cytotoxicity for HepG2 cells, IC50, 24 h incubation, 1–1000 µM
Mtb. H37Ra pMV261/pVV16 = test: microbe, parasite or virus in culture; format: cell-based, Mycobacterium tuberculosis; settings: for MIC: Mycobacterium tuberculosis, H37RA, 672 h, read-out: MIC H37Ra pMV261/pVV16
Mtb. H37Ra pMV261-inhA = test: microbe, parasite or virus in culture; format: cell-based, Mycobacterium tuberculosis; settings: for MIC: Mycobacterium tuberculosis, H37RA, 672 h, read-out: MIC H37Ra pMV261-inhA
[5] = system: Mtb. H37Ra pVV16-katGsmeg; test: microbe, parasite or virus in culture; format: cell-based; settings: Mycobacterium tuberculosis, 672 h, read-out: MIC H37Ra pVV16-katGsmeg
[6] = Solubility in the cytotoxicity concentration range; format: physicochemical; settings: cytotoxicity assay medium, DMSO max 1% v/v
Procedure: The cells were seeded in a density 15,000 cells per well in a 96-well plate. The next day the cells were treated with each of the tested substances at a broad range of concentrations (1–1000 µM) in triplicates; the compounds were dissolved in DMSO (maximal incubation concentration of DMSO was 1% v/v). The controls representing 100% cell viability, 0% cell viability (the cells treated with 10% DMSO), no cell control and vehiculum controls were incubated in parallel, also as triplicates. After 24 h of incubation in a humidified atmosphere containing 5% CO2 at 37 °C, the reagent from the kit CellTiter 96 AQueous One Solution Cell Proliferation Assay (CellTiter 96; PROMEGA, Fitchburg, WI, USA) was added. After 2 h incubation at 37 °C, absorbance of samples was recorded at 490 nm (TECAN, Infinita M200, Grödig, Austria). A standard toxicological parameter IC50 was calculated by nonlinear regression from a semilogarithmic plot of incubation concentration versus percentage of absorbance relative to untreated controls using GraphPad Prism 8 software (GraphPad Software, Inc., La Jolla, CA, USA).
Cytotoxicity was quantified using the standard parameter IC50 (Figure 3).

[7] = system: Mycobacterium tuberculosis strain 331/88 (i.e., H37Rv); set-up: method as in PMID 34198149; settings: cited from earlier work
[8] = system: Mycobacterium avium 330/88; set-up: method as in PMID 34198149; settings: cited from earlier work
[9] = system: Mycobacterium kansasii 6509/96 (clinical isolate); set-up: method as in PMID 34198149; settings: cited from earlier work
[10] = Mycobacterium tuberculosis, H37RV, 336 h, 14 d incubation, esters, Table 1, read-out: MIC Mtb. 331/88 14 d
[11] = Mycobacterium tuberculosis, H37RV, 504 h, 21 d incubation, esters, Table 1, read-out: MIC Mtb. 331/88 21 d
[12] = Mycobacterium avium, 330/88, 336 h, 14 d incubation, Table 1, read-out: MIC M. avium 330/88 14 d
[13] = Mycobacterium avium, 330/88, 504 h, 21 d incubation, Table 1, read-out: MIC M. avium 330/88 21 d
[14] = Mycobacterium kansasii, 168 h, 7 d incubation, Table 1, read-out: MIC M. kansasii 6509/96 7 d
[15] = Mycobacterium kansasii, 336 h, 14 d incubation, Table 1, read-out: MIC M. kansasii 6509/96 14 d
[16] = Mycobacterium kansasii, 504 h, 21 d incubation, Table 1, read-out: MIC M. kansasii 6509/96 21 d
[17] = Mycobacterium kansasii, 504 h, text summary over 7, 14 and 21 d, read-out: MIC for M. kansasii 6509/96
[18] = Mycobacterium tuberculosis, H37RV, Table 4, read-out: MIC H37Rv
[19] = Mycobacterium avium, 330/88, 504 h, 14 and 21 d, read-out: MIC for M. avium

5-Isopropyl-2-methylphenyl (E)-2-(2-isonicotinoylhydrazineylidene)propanoate [3k]
MIC ([1]; 14 d incubation, esters, Table 1, read-out: MIC Mtb. 331/88 14 d): 0.25 µM | MIC ([1]; 21 d incubation, esters, Table 1, read-out: MIC Mtb. 331/88 21 d): 0.25 µM | MIC ([2]; 14 d incubation, Table 1, read-out: MIC M. avium 330/88 14 d): 500 µM | MIC ([2]; 21 d incubation, Table 1, read-out: MIC M. avium 330/88 21 d): 1000 µM | MIC ([3]; 7 d incubation, Table 1, read-out: MIC M. kansasii 6509/96 7 d): 8 µM | MIC ([3]; 14 d incubation, Table 1, read-out: MIC M. kansasii 6509/96 14 d): 16 µM | MIC ([3]; 21 d incubation, Table 1, read-out: MIC M. kansasii 6509/96 21 d): 16 µM | fold lower activity than isomer 3l ([3]; M. kansasii 6509/96): 64 × | IC50 (HepG2 cells): > 500 µM

C/C(=N\NC(=O)c1ccncc1)C(=O)Oc1ccc(Oc2ccccc2)cc1 [3e, 4-Phenoxyphenyl (E)-2-(2-isonicotinoylhydrazineylidene)propanoate]
MIC [1, 10]: ≤ 0.125 µM | MIC [1, 11]: 0.5 µM (≈ 0.188 µg/mL) | MIC [2, 12]: 250 µM (≈ 93.8 µg/mL) | MIC [2, 13]: 500 µM (≈ 188 µg/mL) | MIC [3, 14]: 2 µM (≈ 0.751 µg/mL) | MIC [3, 15]: 4 µM (≈ 1.5 µg/mL) | MIC [3, 16]: 4 µM (≈ 1.5 µg/mL) | melting point: 152.4 to 155 °C | IC50 at 24 h [4]: 551 µM | IC50 (HepG2 cells): > 500 µM

C/C(=N\NC(=O)c1ccncc1)C(=O)Oc1cccc2ccccc12 [3i, Naphthalen-1-yl (E)-2-(2-isonicotinoylhydrazineylidene)propanoate]
MIC [1, 10]: 0.25 µM (≈ 0.0833 µg/mL) | MIC [1, 11]: 0.25 µM (≈ 0.0833 µg/mL) | MIC [2, 12]: 125 µM (≈ 41.7 µg/mL) | MIC [2, 13]: 250 µM (≈ 83.3 µg/mL) | MIC [3, 14]: 0.25 µM (≈ 0.0833 µg/mL) | MIC [3, 15]: 0.25 µM (≈ 0.0833 µg/mL) | MIC [3, 16]: 0.25 µM (≈ 0.0833 µg/mL) | MIC [3, 17]: ≤ 0.5 µM | melting point: 181.1 to 182.5 °C | IC50 at 24 h [4]: 999 µM | IC50 (HepG2 cells): > 500 µM

C/C(=N\NC(=O)c1ccncc1)C(=O)Oc1ccc2ccccc2c1 [3j, Naphthalen-2-yl (E)-2-(2-isonicotinoylhydrazineylidene)propanoate]
MIC [1, 10]: 0.25 µM (≈ 0.0833 µg/mL) | MIC [1, 11]: 0.25 µM (≈ 0.0833 µg/mL) | MIC [2, 12]: 125 µM (≈ 41.7 µg/mL) | MIC [2, 13]: 250 µM (≈ 83.3 µg/mL) | MIC [3, 14]: 0.25 µM (≈ 0.0833 µg/mL) | MIC [3, 15]: 0.25 µM (≈ 0.0833 µg/mL) | MIC [3, 16]: 0.5 µM (≈ 0.167 µg/mL) | MIC [3, 17]: ≤ 0.5 µM | melting point: 116 to 117.2 °C | IC50 at 24 h [4]: 682 µM | IC50 (HepG2 cells): > 500 µM

C/C(=N\NC(=O)c1ccncc1)C(=O)Oc1cc(C(C)C)ccc1C [3l, 2-Isopropyl-5-methyphenyl (E)-2-(2-isonicotinoylhydrazineylidene)propanoate]
MIC [1, 10]: 0.25 µM (≈ 0.0848 µg/mL) | MIC [1, 11]: 0.25 µM (≈ 0.0848 µg/mL) | MIC [1, 18]: 0.25 µM (≈ 0.0848 µg/mL) | MIC [2, 12]: 125 µM (≈ 42.4 µg/mL) | MIC [2, 13]: 250 µM (≈ 84.8 µg/mL) | MIC [3, 14]: 0.25 µM (≈ 0.0848 µg/mL) | MIC [3, 15]: 0.25 µM (≈ 0.0848 µg/mL) | MIC [3, 16]: 0.25 µM (≈ 0.0848 µg/mL) | MIC [3, 17]: ≤ 0.5 µM | MIC H37Ra pMV261/pVV16 (Mtb. H37Ra pMV261/pVV16): 0.25 | MIC (Mtb. H37Ra pMV261/pVV16): 0.25 µM (≈ 0.0848 µg/mL) | MIC H37Ra pMV261-inhA (Mtb. H37Ra pMV261-inhA): 5 µM | MIC (Mtb. H37Ra pMV261-inhA): 5 µM (≈ 1.7 µg/mL) | MIC [5]: 0.05 to 0.125 µM (≈ 0.017 to 0.0424 µg/mL) | IC50 at 24 h [4]: > 1000 µM

C/C(=N\NC(=O)c1ccncc1)C(=O)Oc1cccc2cccnc12 [3m, Quinolin-8-yl (E)-2-(2-isonicotinoylhydrazineylidene)propanoate]
MIC [1, 10]: 0.25 µM (≈ 0.0836 µg/mL) | MIC [1, 11]: 0.5 µM (≈ 0.167 µg/mL) | MIC [1, 18]: 0.25 µM (≈ 0.0836 µg/mL) | MIC [2, 12]: 32 µM (≈ 10.7 µg/mL) | MIC [2, 19]: 32 to 64 µM (≈ 10.7 to 21.4 µg/mL) | MIC [2, 13]: 64 µM (≈ 21.4 µg/mL) | MIC [3, 14]: 2 µM (≈ 0.669 µg/mL) | MIC [3, 15]: 4 µM (≈ 1.34 µg/mL) | MIC [3, 16]: 4 µM (≈ 1.34 µg/mL) | MIC H37Ra pMV261/pVV16 (Mtb. H37Ra pMV261/pVV16): 0.25 | MIC (Mtb. H37Ra pMV261/pVV16): 0.25 µM (≈ 0.0836 µg/mL) | MIC H37Ra pMV261-inhA (Mtb. H37Ra pMV261-inhA): 5 µM | MIC (Mtb. H37Ra pMV261-inhA): 5 µM (≈ 1.67 µg/mL) | MIC [5]: 0.125 µM (≈ 0.0418 µg/mL) | melting point: 159.3 to 160.4 °C | IC50 at 24 h [4]: 247 µM

C/C(=N\NC(=O)c1ccncc1)C(=O)Oc1cc(Cl)ccc1Oc1ccc(Cl)cc1Cl [3o, 5-Chloro-2-(2,4-dichlorophenoxy)phenyl (E)-2-(2-isonicotinoylhydrazineylidene)propanoate]
MIC [1, 10]: ≤ 0.125 µM | MIC [1, 11]: ≤ 0.125 µM | MIC [1, 18]: 0.125 µM (≈ 0.0598 µg/mL) | MIC [2, 12]: 64 µM (≈ 30.6 µg/mL) | MIC [2, 19]: 32 to 64 µM (≈ 15.3 to 30.6 µg/mL) | MIC [2, 13]: 64 µM (≈ 30.6 µg/mL) | MIC [3, 14]: 4 µM (≈ 1.91 µg/mL) | MIC [3, 15]: 4 µM (≈ 1.91 µg/mL) | MIC [3, 16]: 8 µM (≈ 3.83 µg/mL) | MIC H37Ra pMV261/pVV16 (Mtb. H37Ra pMV261/pVV16): 0.325 | MIC (Mtb. H37Ra pMV261/pVV16): 0.325 µM (≈ 0.156 µg/mL) | MIC H37Ra pMV261-inhA (Mtb. H37Ra pMV261-inhA): 6 µM | MIC (Mtb. H37Ra pMV261-inhA): 6.25 µM (≈ 2.99 µg/mL) | MIC [5]: 0.125 µM (≈ 0.0598 µg/mL) | solubility in the concentration range of 1–1000 μM [6]: without any solubility problem | melting point: 153 to 155 °C | IC50 at 24 h [4]: 211 µM

C/C(=N\NC(=O)c1ccncc1)C(=O)O [compound 2, (E)-2-(2-isonicotinoylhydrazineylidene)propanoic acid]
MIC Mtb. 331/88 14 d ([7]; 14 d incubation): 1 µM (≈ 0.207 µg/mL) | MIC Mtb. 331/88 21 d ([7]; 21 d incubation): 1 µM (≈ 0.207 µg/mL) | MIC M. avium 330/88 14 d ([8]; 14 d incubation): 500 µM (≈ 104 µg/mL) | MIC M. avium 330/88 21 d ([8]; 21 d incubation): >1000 µM | MIC M. kansasii 6509/96 7 d ([9]; 7 d incubation): 8 µM (≈ 1.66 µg/mL) | MIC M. kansasii 6509/96 14 d ([9]; 14 d incubation): 16 µM (≈ 3.32 µg/mL) | MIC M. kansasii 6509/96 21 d ([9]; 21 d incubation): 16 µM (≈ 3.32 µg/mL)
